Patent US6525001B1, “Substituted pyrimidine and pyridine herbicides” (Mid-American Commercialization Corporation, priority 1997, dated 2003)

Experiments:
Format in all cases: in vivo
Parameters in all cases: key: 0 is no effect; 10 is complete control
rice (Oryza sativa) = assay: Test B flood test
In short: (§1)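 Flood test on plants grown to the 2-leaf stage; treated plants kept in greenhouse twelve to sixteen days, then visually rated against controls on a 0 (no effect) to 10 (complete control) scale.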

[1] = tested on: smallflower flatsedge (Cyperus difformis); assay: Test B flood test
In short: as §1

[2] = tested on: duck salad (Heteranthera limosa); assay: Test B flood test
In short: as §1

[3] = tested on: bamyardgrass (Echinochloa crus-galli); assay: Test B flood test
In short: as §1

[4] = tested on: velvetleaf (Abutilon theophrasti); assay: Test B pre-/postemergence
In short: (§2)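 Scored visually 0 (none) to 10 (complete control) against untreated plants after twelve to sixteen greenhouse days. Test chemicals, formulated in surfactant-containing non-phytotoxic solvent, applied to soil after planting and, separately, onto 1- to 4-leaf (2–18 cm) plants.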

[5] = tested on: giant foxtail (Setaria faberii); assay: Test B pre-/postemergence
In short: as §2

[6] = tested on: momingglory (Ipomoea hederacea); assay: Test B pre-/postemergence
In short: as §2

[7] = tested on: cocklebur (Xanthium strumarium); assay: Test B pre-/postemergence
In short: as §2

wild oat (Avena fatua) = assay: Test B pre-/postemergence
In short: as §2

[8] = tested on: blackgrass (Alopecurus myosuroides); assay: Test B pre-/postemergence
In short: as §2

[9] = tested on: broadleaf signalgrass (Brachiaria decumbens); assay: Test B pre-/postemergence
In short: as §2

[10] = tested on: crabgrass (Digitaria sanguinalis); assay: Test B pre-/postemergence
In short: as §2

[11] = tested on: bedstraw (Galium aparine); assay: Test B pre-/postemergence; details: Postemergence
In short: as §2

[12] = tested on: wheat (Triticum aestivum); assay: Test B pre-/postemergence
In short: as §2

corn (Zea mays) = assay: Test B pre-/postemergence
In short: as §2

soybean (Glycine max) = assay: Test B pre-/postemergence
In short: as §2

[13] = tested on: pigweed (Amaranthus retroflexus); assay: Test B pre-/postemergence
In short: as §2

[14] = tested on: sugar beet (Beta vulgaris); assay: Test B pre-/postemergence
In short: as §2

rape (Brassica napus) = assay: Test B pre-/postemergence
In short: as §2

[15] = tested on: purple nutsedge (Cyperus rotundus); assay: Test B pre-/postemergence; details: Preemergence
In short: as §2

[16] = Rate 62 g/ha, Postemergence (flood test)
[17] = Rate 125 g/ha, Postemergence section (flood test species)
[18] = Rate 250 g/ha, Postemergence (flood test species)
[19] = Preemergence, Rate 62 g/ha, scale of 0 to 10

SMILES: O=C(c1cccc(C(F)(F)F)c1)c1ccnc(-c2ccc(F)cc2F)n1 [Compound 76]
- Rice plant response rating (rice (Oryza sativa); [16]): 0
- Rice plant response rating (rice (Oryza sativa); [17]): 0
- Plant response rating, Rice (rice (Oryza sativa); [18]): 0
- S. Flatsedge plant response rating [1, 16]: 0
- S. Flatsedge plant response rating [1, 17]: 0
- Plant response rating, S. Flatsedge [1, 18]: 0
- Ducksalad plant response rating [2, 16]: 0
- Ducksalad plant response rating [2, 17]: 0
- Plant response rating, Ducksalad [2, 18]: 0
- Barnyardgrass plant response rating [3, 16]: 0
- Barnyardgrass plant response rating [3, 17]: 0
- Plant response rating, Barnyardgrass [3, 18]: 0
- Plant response rating, Velvetleaf [4, 19]: 0
- Velvetleaf plant response rating ([4]; Rate 62 g/ha, Postemergence): 0
- Velvetleaf plant response rating ([4]; Rate 125 g/ha, Postemergence): 1
- Plant response rating, Velvetleaf ([4]; Rate 125 g/ha, Preemergence): 0
- Plant response rating, Velvetleaf ([4]; Rate 250 g/ha, Postemergence): 1
- Plant response rating, Velvetleaf ([4]; Rate 250 g/ha, Preemergence): 0
- Plant response rating, Giant foxtail [5, 19]: 0
- Giant foxtail plant response rating ([5]; Rate 62 g/ha, Postemergence): 0
- Giant foxtail plant response rating ([5]; Rate 125 g/ha, Postemergence): 0
- Plant response rating, Giant foxtail ([5]; Rate 125 g/ha, Preemergence): 0
- Plant response rating, Giant foxtail ([5]; Rate 250 g/ha, Postemergence): 1
- Plant response rating, Giant foxtail ([5]; Rate 250 g/ha, Preemergence): 0
- Plant response rating, Morningglory [6, 19]: 0
- Morningglory plant response rating ([6]; Rate 62 g/ha, Postemergence): 0
- Morningglory plant response rating ([6]; Rate 125 g/ha, Postemergence): 0
- Plant response rating, Morningglory ([6]; Rate 125 g/ha, Preemergence): 0
- Plant response rating, Morningglory ([6]; Rate 250 g/ha, Postemergence): 1
- Plant response rating, Morningglory ([6]; Rate 250 g/ha, Preemergence): 0
- Plant response rating, Cocklebur [7, 19]: 0
- Cocklebur plant response rating ([7]; Rate 62 g/ha, Postemergence): 1
- Cocklebur plant response rating ([7]; Rate 125 g/ha, Postemergence): 3
- Plant response rating, Cocklebur ([7]; Rate 125 g/ha, Preemergence): 0
- Plant response rating, Cocklebur ([7]; Rate 250 g/ha, Postemergence): 4
- Plant response rating, Cocklebur ([7]; Rate 250 g/ha, Preemergence): 0
- Plant response rating, Wild oats (wild oat (Avena fatua); [19]): 0
- Wild oats plant response rating (wild oat (Avena fatua); Rate 62 g/ha, Postemergence): 0
- Wild oats plant response rating (wild oat (Avena fatua); Rate 125 g/ha, Postemergence): 0
- Plant response rating, Wild oats (wild oat (Avena fatua); Rate 125 g/ha, Preemergence): 0
- Plant response rating, Wild oats (wild oat (Avena fatua); Rate 250 g/ha, Postemergence): 0
- Plant response rating, Wild oats (wild oat (Avena fatua); Rate 250 g/ha, Preemergence): 0
- Plant response rating, Blackgrass [8, 19]: 0
- Blackgrass plant response rating ([8]; Rate 62 g/ha, Postemergence): 0
- Blackgrass plant response rating ([8]; Rate 125 g/ha, Postemergence): 0
- Plant response rating, Blackgrass ([8]; Rate 125 g/ha, Preemergence): 0
- Plant response rating, Blackgrass ([8]; Rate 250 g/ha, Postemergence): 0
- Plant response rating, Blackgrass ([8]; Rate 250 g/ha, Preemergence): 0
- B. signalgrass plant response rating ([9]; Rate 62 g/ha, Postemergence): 0
- B. signalgrass plant response rating ([9]; Rate 62 g/ha, Preemergence): 0
- B. signalgrass plant response rating ([9]; Rate 125 g/ha, Postemergence): 0
- Plant response rating, B. signalgrass ([9]; Rate 125 g/ha, Preemergence): 0
- Plant response rating, B. signalgrass ([9]; Rate 250 g/ha, Postemergence): 0
- Plant response rating, B. signalgrass ([9]; Rate 250 g/ha, Preemergence): 0
- Plant response rating, Crabgrass [10, 19]: 0
- Crabgrass plant response rating ([10]; Rate 62 g/ha, Postemergence): 0
- Crabgrass plant response rating ([10]; Rate 125 g/ha, Postemergence): 0
- Plant response rating, Crabgrass ([10]; Rate 125 g/ha, Preemergence): 0
- Plant response rating, Crabgrass ([10]; Rate 250 g/ha, Postemergence): 1
- Plant response rating, Crabgrass ([10]; Rate 250 g/ha, Preemergence): 0
- Bedstraw plant response rating ([11]; Rate 62 g/ha): 0
- Bedstraw plant response rating ([11]; Rate 125 g/ha): 0
- Plant response rating, Bedstraw ([11]; Rate 250 g/ha): 0
- Plant response rating, Wheat [12, 19]: 0
- Wheat plant response rating ([12]; Rate 62 g/ha, Postemergence): 0
- Wheat plant response rating ([12]; Rate 125 g/ha, Postemergence): 0
- Plant response rating, Wheat ([12]; Rate 125 g/ha, Preemergence): 0
- Plant response rating, Wheat ([12]; Rate 250 g/ha, Postemergence): 0
- Plant response rating, Wheat ([12]; Rate 250 g/ha, Preemergence): 0
- Plant response rating, Corn (corn (Zea mays); [19]): 0
- Corn plant response rating (corn (Zea mays); Rate 62 g/ha, Postemergence): 1
- Corn plant response rating (corn (Zea mays); Rate 125 g/ha, Postemergence): 1
- Plant response rating, Corn (corn (Zea mays); Rate 125 g/ha, Preemergence): 0
- Plant response rating, Corn (corn (Zea mays); Rate 250 g/ha, Postemergence): 1
- Plant response rating, Corn (corn (Zea mays); Rate 250 g/ha, Preemergence): 0
- Plant response rating, Soybean (soybean (Glycine max); [19]): 0
- Soybean plant response rating (soybean (Glycine max); Rate 62 g/ha, Postemergence): 0
- Soybean plant response rating (soybean (Glycine max); Rate 125 g/ha, Postemergence): 0
- Plant response rating, Soybean (soybean (Glycine max); Rate 125 g/ha, Preemergence): 0
- Plant response rating, Soybean (soybean (Glycine max); Rate 250 g/ha, Postemergence): 1
- Plant response rating, Soybean (soybean (Glycine max); Rate 250 g/ha, Preemergence): 0
- Plant response rating, Redroot pigweed [13, 19]: 0
- Redroot pigweed plant response rating ([13]; Rate 62 g/ha, Postemergence): 1
- Redroot pigweed plant response rating ([13]; Rate 125 g/ha, Postemergence): 1
- Plant response rating, Redroot pigweed ([13]; Rate 125 g/ha, Preemergence): 0
- Plant response rating, Redroot pigweed ([13]; Rate 250 g/ha, Postemergence): 2
- Plant response rating, Redroot pigweed ([13]; Rate 250 g/ha, Preemergence): 0
- Plant response rating, Sugarbeets [14, 19]: 0
- Sugarbeets plant response rating ([14]; Rate 62 g/ha, Postemergence): 1
- Sugarbeets plant response rating ([14]; Rate 125 g/ha, Postemergence): 2
- Plant response rating, Sugarbeets ([14]; Rate 125 g/ha, Preemergence): 0
- Plant response rating, Sugarbeets ([14]; Rate 250 g/ha, Postemergence): 3
- Plant response rating, Sugarbeets ([14]; Rate 250 g/ha, Preemergence): 0
- Plant response rating, Rape (rape (Brassica napus); [19]): 0
- Rape plant response rating (rape (Brassica napus); Rate 62 g/ha, Postemergence): 1
- Rape plant response rating (rape (Brassica napus); Rate 125 g/ha, Postemergence): 2
- Plant response rating, Rape (rape (Brassica napus); Rate 125 g/ha, Preemergence): 0
- Plant response rating, Rape (rape (Brassica napus); Rate 250 g/ha, Postemergence): 2
- Plant response rating, Rape (rape (Brassica napus); Rate 250 g/ha, Preemergence): 0
- Plant response rating, Nutsedge ([15]; Rate 62 g/ha, scale of 0 to 10): 0
- Plant response rating, Nutsedge ([15]; Rate 125 g/ha): 0
